ChEMBL document CHEMBL3045549, “Solvent-free, green and efficient synthesis of pyrano[4, 3-b]pyrans by grinding and their biological evaluation as antitumor and antioxidant agents” (Med Chem Res, 2013)

Key:
MCF7 = experiment: Cytotoxicity against human MCF7 cells after 96 hrs by MTT assay; assay type: functional, cell-based; settings: MCF7, 96 h
[1] = system: Radical scavenging activity; experiment: Antioxidant activity assessed as inhibition of DPPH radical after 30 mins by spectrophotometric analysis; assay type: functional

Row | Compound | IC50 (MCF7) [µM] | IC50 [1] [µM]
1 | Cc1cc2c(c(=O)o1)C(c1cccs1)C(C#N)=C(N)O2 (configuration not stated) | 15 | 739
2 | Cc1ccc(C2C(C#N)=C(N)Oc3cc(C)oc(=O)c32)cc1 (configuration not stated) | 54 | 634
3 | COc1ccc(C2C(C#N)=C(N)Oc3cc(C)oc(=O)c32)cc1 (configuration not stated) | 57 | 520
4 | Cc1cc2c(c(=O)o1)C(c1ccc([N+](=O)[O-])cc1)C(C#N)=C(N)O2 (configuration not stated) | 42 | 816
5 | Cc1cc2c(c(=O)o1)C(c1ccc(Cl)cc1)C(C#N)=C(N)O2 (configuration not stated) | 32 | 487
6 | Cc1cc2c(c(=O)o1)C(c1ccc(Br)cc1)C(C#N)=C(N)O2 (configuration not stated) | 35 | 512
7 | Cc1cc2c(c(=O)o1)C(c1ccco1)C(C#N)=C(N)O2 (configuration not stated) | 27 | 228
8 | Cc1cc2c(c(=O)o1)C(c1ccc(C)s1)C(C#N)=C(N)O2 (configuration not stated) | 22 | 943
9 | Cc1cc2c(c(=O)o1)C(c1ccc(Cl)s1)C(C#N)=C(N)O2 (configuration not stated) | 12 | 616
10 | Cc1cc2c(c(=O)o1)C(c1c[nH]c3ccccc13)C(C#N)=C(N)O2 (configuration not stated) | 10 | 339
11 | Cc1cc2c(c(=O)o1)C(c1c[nH]c3ccc(C#N)cc13)C(C#N)=C(N)O2 (configuration not stated) | 7 | 567
12 | Cc1cc2c(c(=O)o1)C(c1c[nH]c3ccc(Br)cc13)C(C#N)=C(N)O2 (configuration not stated) | 5 | 440
13 | Cc1cc2c(c(=O)o1)C(c1ccccc1)C(C#N)=C(N)O2 (configuration not stated) | 46 | 769
14 | O=C1O[C@H]([C@@H](O)CO)C(O)=C1O [ASCORBIC ACID] | – | 106
